Test results: EP0472304A2, “Pharmaceutical compositions containing therapeutically active organosilane derivatives and process for preparing same” (Richter Gedeon Vegyészeti Gyár R.T., priority 1990, dated 1992)
Marks after values point to notes of the source that are not given here.

How the values were obtained:
Straub's tail = Straub's tail test (morphine-induced); type: in vivo, male OF-1 mice; settings: Mus musculus, ip; mice, i.p., pretreatment 20 min before reading; 60 mg/kg i.p. morphine hydrochloride
Experimental: Method 2: Straub's tail test
The method of Novack [Drug Development Res. 2, 383 (1982)] was used with a slight modification. Groups consisting of 10 male OF-1 mice each weighing 19 to 21 g were intraperitoneally treated with 60 mg/kg of morphine hydrochloride. The formation of Straub's tail was judged 15 minutes after the morphine treatment. This was considered to be positive when the animal kept his tail permanently upwards at an angle being steeper than 45°. A pretreatment was carried out with various doses of the compound to be tested 20 minutes before the time of reading. The ED50 value, i.e. the dose inhibiting the positive response in 50% of the animals, was calculated by using the method of Litchfield and Wilcoxon.
(The above author found a good relation between the activity shown in the above test and the clinical effectivity of central muscle relaxants.)

flexor reflex = assay: Investigation of the flexor reflex on anaesthetized cats; type: in vivo; settings: chloralose-anaesthetized cats
Description: Method 3: Investigation of the flexor reflex on anaesthetized cats
Chloralose-anaesthetized cats of both sexes weighing 2.2-5.4 kg each were used in these experiments. The flexor reflex of the animals was studied by using the quantitative electromyographic method of Farkas et al [Pharmacol. Res. Comm. 20, Suppl. 1, 141 (1988)].
The results summarized in Table 1 are the values calculated from the average results of 4 to 8 experiments. The duration of effect was characterized by the time passing from the administration of this dose until the return to 75% of the control value (T75%).
The pharmacological activities of the compounds showing the most prominent effects together with the activity of tolperisone used as reference drug are shown in Table 1.

[1] = test system: GYKI-20039-induced tremor; assay: Test on the GYKI-20039-induced tremor; type: in vivo, male CFLP mice; settings: Mus musculus, iv; mice, pretreatment time 0 min; dose causing 50% inhibition of tremor induced by 10 mg/kg i.p. GYKI-20039
Experimental: Method 1: Test on the GYKI-20039-induced tremor
Groups consisting of 10 to 20 male CFLP mice each weighing 19 to 21 g were intraperitoneally (i.p.) treated with 10 mg/kg of GYKI-20039 (test substance). Similarly to the structurally related compound of code number LON-954, GYKI-20039 induces a tremor on mice which is considered as the experimental model of the Parkinson's disease [Coward et al., Psychopharmacology 52, 165 (1977); Andrasi et al. IX Internat. Congress of Neuropathology, 1-98, 209, Vienna 1982]. The tremor induced by GYKI-20039 reaches a maximum strength 4 to 8 minutes following administration of the test substance, then it continuously diminishes and is finished within about 1 hour. According to our experiences obtained on ten known central muscle relaxants, this tremor can be inhibited by central muscle relaxants in a dose-dependent manner and is useful for the assay (evaluation) of the central muscle relaxant effects. After administration of the test substance, the mice were suspended on an isometric dynamometer in a light plastic box and the strength of the tremor was measured and quantified by electronic integration. The tremor strength of the mice was averaged in the 4th-8th minutes after treatment with the test substance.
The animals were pretreated with various doses of the muscle relaxants to be tested before the treatment with the test substance. […]

[2] = 10 mg/kg i.v., time until return to 75% of the control value

Row | SMILES | ED50 (Straub's tail) | Duration of effect T75% (flexor reflex; i.v., the effect of 5 mg/kg was investigated) | Duration of effect T75% (flexor reflex; [2]) | ED50 [1]
1 | C[Si](C)(CN1CCCCC1)c1ccccc1.O=C(O)/C=C/C(=O)O [Compound 1, N-[(dimethyl-phenylsilyl)methyl]piperidine fumarate] | 30.7 mg/kg | – | – | –
2 | C[Si](C)(CN1CCCC1)c1ccccc1.Cl [Compound 3, N-[(dimethyl-phenylsilyl)methyl]pyrrolidine hydrochloride] | 37.7 mg/kg | 50** min | – | –
3 | C[Si](C)(CN1CCCCC1)c1ccc(F)cc1.O=C(O)/C=C/C(=O)O [Compound 4, N-([dimethyl-(4-fluorophenyl)silyl]methyl)piperidine fumarate] | 19.1 mg/kg | – | 180 min | –
4 | C[Si](C)(CN1CCCCC1)c1ccc(F)cc1.Cl [Compound 5, N-([dimethyl-(4-fluorophenyl)silyl]methyl)piperidine hydrochloride] | 17.8 mg/kg | – | > 180 min | –
5 | C[Si](C)(CN1CCCC1)c1ccc(F)cc1.Cl [Compound 6, N-([dimethyl-(4-fluorophenyl)silyl]methyl)pyrrolidine hydrochloride] | 26.9 mg/kg | – | > 180 min | –
6 | Cc1ccc(C(=O)C(C)CN2CCCCC2)cc1 (stereo not drawn) [Tolperisone, tolperisone, reference compound] | 63 mg/kg | – | 50 min | 10.2 mg/kg
